Here are results for five molecules from ChEMBL document CHEMBL1800070, “Inhibition of a prolyl hydroxylase domain (PHD) by substrate analog peptides” (Bioorg Med Chem Lett, 2011).

Experiment [1] has as its target Hypoxia-inducible factor 1-alpha inhibitor (Homo sapiens) (UniProt Q9NWT6). Description: Inhibition of FIH assessed as inhibition of hydroxylation of C-TAD peptide at 100 uM after 2 hrs by fluorescent polarization assay in presence of 2-oxoglutarate.
The target in experiment [2] is T1, Egl nine homolog 1 (Homo sapiens, UniProt Q9GZT9). Description: Inhibition of PHD2 in human HeLa cells assessed as stabilization of HIF1alpha at 100 uM incubated for 6 hrs under normoxic conditions by Western blot analysis relative to control. The experiment is classed as cell-based. A general note: A western blot detects proteins with antibodies after separation by electrophoresis.
Target sequence in this assay (Q9GZT9 2-426 limits assumed): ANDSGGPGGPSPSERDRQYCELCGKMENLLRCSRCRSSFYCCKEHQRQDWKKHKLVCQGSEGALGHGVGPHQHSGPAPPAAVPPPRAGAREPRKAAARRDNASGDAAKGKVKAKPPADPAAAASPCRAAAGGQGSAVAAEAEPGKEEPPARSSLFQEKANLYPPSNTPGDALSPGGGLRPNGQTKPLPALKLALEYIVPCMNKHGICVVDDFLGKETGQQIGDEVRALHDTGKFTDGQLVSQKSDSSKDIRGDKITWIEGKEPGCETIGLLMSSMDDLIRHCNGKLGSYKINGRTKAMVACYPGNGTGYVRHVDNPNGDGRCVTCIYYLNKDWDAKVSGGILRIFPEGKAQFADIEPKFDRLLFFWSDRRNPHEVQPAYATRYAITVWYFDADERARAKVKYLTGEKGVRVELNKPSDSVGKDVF

The target in experiment [3] is T1, Egl nine homolog 1. Description: Competitive inhibition of GST-tagged PHD2 active site assessed as inhibition of hydroxylation of fluorescein-labeled HIF1alpha CODD peptide at 200 uM after 2 hrs by fluorescent polarization assay in presence of 2-oxoglutarate.
Target sequence in this assay (Q9GZT9 2-426 limits assumed): as above
Experiment [4] deals with T1, Egl nine homolog 1. Description: Inhibition of PHD2 in human HeLa cells assessed as stabilization of HIF1alpha at 1 mM incubated for 6 hrs under normoxic conditions by Western blot analysis relative to control. Type of experiment: cell-based.
Target sequence in this assay (Q9GZT9 2-426 limits assumed): as above
Experiment [5] addresses T1, Egl nine homolog 1. Description: Inhibition of GST-tagged PHD2 assessed as inhibition of hydroxylation of fluorescein-labeled HIF1alpha CODD peptide at 100 uM after 2 hrs by fluorescent polarization assay in presence of 2-oxoglutarate.
Target sequence in this assay (Q9GZT9 2-426 limits assumed): as above
Experiment [6] deals with T1, Egl nine homolog 1. Description: Inhibition of GST-tagged PHD2 assessed as inhibition of hydroxylation of fluorescein-labeled HIF1alpha CODD peptide after 1 hr by fluorescent polarization assay in presence of 2-oxoglutarate.
Target sequence in this assay (Q9GZT9 whole entry): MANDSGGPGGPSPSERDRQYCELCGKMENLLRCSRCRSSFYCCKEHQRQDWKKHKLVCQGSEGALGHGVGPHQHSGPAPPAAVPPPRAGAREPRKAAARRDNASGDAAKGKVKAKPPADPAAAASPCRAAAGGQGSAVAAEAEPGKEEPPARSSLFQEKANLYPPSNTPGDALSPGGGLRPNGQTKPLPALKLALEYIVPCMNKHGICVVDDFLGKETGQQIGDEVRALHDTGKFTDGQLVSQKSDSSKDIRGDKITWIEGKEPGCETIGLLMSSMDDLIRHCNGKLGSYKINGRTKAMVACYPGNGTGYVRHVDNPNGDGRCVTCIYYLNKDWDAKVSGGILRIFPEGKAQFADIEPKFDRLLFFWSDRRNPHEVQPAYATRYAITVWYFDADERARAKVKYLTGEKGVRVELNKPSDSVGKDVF
Experiment [7] has as its target T1, Egl nine homolog 1. Description: Inhibition of GST-tagged PHD2 assessed as inhibition of hydroxylation of biotinylated HIF1alpha CODD peptide at 100 uM after 20 mins by MALDI-TOF technique in presence of 2-oxoglutarate.
Target sequence in this assay (Q9GZT9 2-426 limits assumed): as the sequence (Q9GZT9 2-426 limits assumed) above
Experiment [8] addresses T1, Egl nine homolog 1. Description: Competitive inhibition of GST-tagged PHD2 active site assessed as inhibition of hydroxylation of fluorescein-labeled HIF1alpha CODD peptide at 100 uM after 2 hrs by fluorescent polarization assay in presence of 2-oxoglutarate.
Target sequence in this assay (Q9GZT9 2-426 limits assumed): as above

The source made the active and inactive calls. The calls are words filed in the database; no cut-off is given here.

Sequence of Hypoxia-inducible factor 1-alpha inhibitor (Homo sapiens) (Q9NWT6 whole entry): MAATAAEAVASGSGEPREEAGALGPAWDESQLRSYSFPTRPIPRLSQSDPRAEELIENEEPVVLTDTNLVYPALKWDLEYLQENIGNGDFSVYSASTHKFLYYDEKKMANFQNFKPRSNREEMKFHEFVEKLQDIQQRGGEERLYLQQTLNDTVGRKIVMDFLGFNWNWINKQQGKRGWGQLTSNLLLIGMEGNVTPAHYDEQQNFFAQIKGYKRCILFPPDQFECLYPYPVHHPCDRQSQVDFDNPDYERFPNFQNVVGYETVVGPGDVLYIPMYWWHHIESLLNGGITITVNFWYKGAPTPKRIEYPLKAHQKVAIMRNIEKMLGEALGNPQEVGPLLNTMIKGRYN

Regarding `O=c1cc(-c2ccccc2)oc2cc(O)c(O)c(O)c12`, the inhibition entry in experiment [1] and in experiment [3] was “Active” in each case. The outcome in experiment [2] was Active.

What is called IC50 is the point on the concentration scale where inhibition reaches its midpoint. Turning to `O=C(O)[C@@H]1C=CCN1`, the inhibition entry in experiment [1] and in experiment [5] was “Active” each time. The outcome in experiment [4] was Active. Also, the IC50 in experiment [6] came to 8.5 µM. The “inhibition (active/inactive call)” value in experiment [7] was “Active”. Further, the inhibition result in experiment [8] is “inactive”.

Take `O=C(O)[C@@H]1CC(=S)CN1`: the inhibition entry in experiment [1] and in experiment [5] was “Active” each time. The IC50 in experiment [6] turned out to be 69.7 µM. In addition, the “inhibition (active/inactive call)” value in experiment [7] is “Active”. Besides, the inhibition result in experiment [8] is “inactive”.

With `O=C(O)[C@@H]1C[C@@H](F)CN1`, the “inhibition (active/inactive call)” value in experiment [7] was “inactive”.

Turning to `O=C(O)[C@@H]1C[C@@H](O)CN1`, the “inhibition (active/inactive call)” value in experiment [7] is “inactive”.
